Measurements published in patent publication US5780054A, “Methods for increasing the circulation half-life of protein-based therapeutics” (University of British Columbia, priority 1996, dated 1998).

Experiments:
anti-ovalbumin IgG = assay: ELISA of plasma anti-ovalbumin IgG after 3 weekly i.v. injections (FIG. 3); format: in vivo, mouse (C3H/HeJ)
Protocol: Groups of four C3H/HeJ mice per experimental point were given the specified treatment as a single i.v. dose via a lateral tail vein. The injection, given in a volume of 200 μL, contained 50 μg of ovalbumin. In animals receiving control (protein free) liposomes, the dose was chosen based on the lipid dose given for the ovalbumin-coated liposome group. This lipid dose was approximately 45 mg/kg. In the groups receiving doxorubicin, the drug dose was approximately 8 mg/kg.
Microtitre plates (Flow Laboratories) were coated with 50 μL of 40 μg/mL ovalbumin and incubated at 4° C. overnight. The plates were washed twice (phosphate buffered saline containing 0.1% (vol/vol) TWEEN® 20) and then blocked with 2% bovine serum albumin (BSA) for 1 hour at 37° C. The plates were rinsed prior to addition of mouse plasma in a final volume of 100 μL (the extent to which the plasma was diluted depended on treatment group). […] Plates were incubated at room temperature for 30 min, washed, and the amount of plate associated β-galactosidase was determined. […] The amount of chlorophenol red produced was determined by measuring absorbance at 570 nm on a […] ® plate reader. Antibody levels were estimated on the basis of standard curves consisting of known quantities of a rabbit polyclonal anti-ovalbumin IgG (Cortex Biochemicals, Calif., USA). […]

[1] = mouse, in vivo; cited from earlier work
RES = conditions: in vivo; cited from earlier work

Substance	anti-ovalbumin IgG level (anti-ovalbumin IgG)	maximum tolerated dose [1]	circulation lifetimes for the liposomal carrier (RES)	liposome accumulation in the liver (RES)	spleen and bone marrow cellularity (RES)
free ovalbumin: IMJECT® (ovalbumin) obtained from Pierce	2.1 μg/mL plasma	–	–	–	–
liposomal doxorubicin	–	greater than 60 mg doxorubicin/kg	significant increases	significant decreases	extended suppression
